Like-named read-outs stand apart in the source and are kept apart here.
Tests used:
[1] = biological target: TYK2 (Homo sapiens (Human), UniProt P29597); assay: Tyk2 activity inhibition assay (radioactive kinase assay / Caliper assay); type: biochemical
Summary of the method: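 Two formats were used. Caliper off-chip mobility shift read phosphorylated peptide 30 (3 uM) after 25 min at 28° C with 9.75 nM TYK2 and ATP at 16 uM or 1 mM. Radioactive assay: 10 μM 33P-ATP, 20 μM peptide, 120 min room temp, P81 filter counting.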

[2] = biological target: JAK2 (Homo sapiens (Human), UniProt O60674); assay: JAK2 activity inhibition assay (radioactive kinase assay / Caliper assay); type: biochemical
Summary of the method: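 Reaction ran 25 min at 28° C after adding peptide/ATP mix (10 mM MgCl2) to compound and enzyme in HEPES pH 7.5 buffer with Brij-35, Triton and EGTA. EDTA stop, then microfluidic off-chip separation quantified phosphorylated peptide.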

[3] = tested on: Tyk2-pSTAT4; assay: IL-12 induced pSTAT4 in human PBMC; type: cell-based; details: read-out: Tyk2-pSTAT4 EC50
Summary of the method: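 PBMC (200,000 cells/well) in serum-containing medium were preincubated with compound for 1 hr at 37 C, final DMSO 0.1%. Stimulation with 1.7 ng/mL IL-12 (final) for 30 minutes. pSTAT4 and total STAT4 were measured in lysates by MSD.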

[4] = tested on: JAK2-pSTAT5; assay: GM-CSF induced pSTAT5 in human PBMC; type: cell-based; details: read-out: JAK2-pSTAT5 EC50
Experimental: Human PBMC are isolated from buffy coat and are stored frozen for assays as needed. […] 15 μl of compound or DMSO is added to the well at the desired concentrations and incubated at 1 hr at 37 C. 15 μl of stimulus (final concentration of 1.7 ng/mL IL-12) is added for 30 minutes prior to pSTAT4 and total STAT4 analysis using cell lysates prepared and analyzed by MSD reagents as per manufacturer protocol. The final DMSO concentration of compound in the assay is 0.1%.
Cells are prepared for analysis as in the above procedure and 15 μl of GM-CSF (final concentration 5 ng/mL) is added for 20 minutes prior to pSTAT5 and total STAT5 analysis using cell lysates prepared and analyzed by MSD reagents as per manufacturer protocol. The final DMSO concentration of compound in the assay is 0.1%.

[5] = tested on: IL-12 induced IFNγ; assay: Ex vivo mouse IL-12 induced IFNγ studies; type: in vivo, C57/BL6 mice; details: ex vivo mouse model, doses of ≤10 mg/kg
Experimental: C57/BL6 mice were given a single oral dose of either vehicle or different doses of compound at a volume of 10 mL/kg. 30 minutes to 1 hour after dosing, animals were euthanized and blood was collected via vena cava into sodium heparin blood collection tubes and inverted several times. Blood was then plated on anti-CD3 coated plates and stimulated with 2 ng/ml of mouse IL-12 in RPMI media for 24 hours at 37° C. in humidified incubator with 5% CO2. At the end of the incubation, blood was centrifuged at 260 g for 5 minutes to collect supernatant. IFNγ concentration in the supernatant was determined with mouse IFNγ MSD kit per manufacture's instruction (Meso Scale Discovery). At the time of the blood collection, plasma was collected for drug level analysis by LC-MS/MS.

[6] = IL-12 induced pSTAT4, human PBMC
[7] = GM-CSF induced pSTAT5, human PBMC

Sequence of TYK2 (P29597 whole entry): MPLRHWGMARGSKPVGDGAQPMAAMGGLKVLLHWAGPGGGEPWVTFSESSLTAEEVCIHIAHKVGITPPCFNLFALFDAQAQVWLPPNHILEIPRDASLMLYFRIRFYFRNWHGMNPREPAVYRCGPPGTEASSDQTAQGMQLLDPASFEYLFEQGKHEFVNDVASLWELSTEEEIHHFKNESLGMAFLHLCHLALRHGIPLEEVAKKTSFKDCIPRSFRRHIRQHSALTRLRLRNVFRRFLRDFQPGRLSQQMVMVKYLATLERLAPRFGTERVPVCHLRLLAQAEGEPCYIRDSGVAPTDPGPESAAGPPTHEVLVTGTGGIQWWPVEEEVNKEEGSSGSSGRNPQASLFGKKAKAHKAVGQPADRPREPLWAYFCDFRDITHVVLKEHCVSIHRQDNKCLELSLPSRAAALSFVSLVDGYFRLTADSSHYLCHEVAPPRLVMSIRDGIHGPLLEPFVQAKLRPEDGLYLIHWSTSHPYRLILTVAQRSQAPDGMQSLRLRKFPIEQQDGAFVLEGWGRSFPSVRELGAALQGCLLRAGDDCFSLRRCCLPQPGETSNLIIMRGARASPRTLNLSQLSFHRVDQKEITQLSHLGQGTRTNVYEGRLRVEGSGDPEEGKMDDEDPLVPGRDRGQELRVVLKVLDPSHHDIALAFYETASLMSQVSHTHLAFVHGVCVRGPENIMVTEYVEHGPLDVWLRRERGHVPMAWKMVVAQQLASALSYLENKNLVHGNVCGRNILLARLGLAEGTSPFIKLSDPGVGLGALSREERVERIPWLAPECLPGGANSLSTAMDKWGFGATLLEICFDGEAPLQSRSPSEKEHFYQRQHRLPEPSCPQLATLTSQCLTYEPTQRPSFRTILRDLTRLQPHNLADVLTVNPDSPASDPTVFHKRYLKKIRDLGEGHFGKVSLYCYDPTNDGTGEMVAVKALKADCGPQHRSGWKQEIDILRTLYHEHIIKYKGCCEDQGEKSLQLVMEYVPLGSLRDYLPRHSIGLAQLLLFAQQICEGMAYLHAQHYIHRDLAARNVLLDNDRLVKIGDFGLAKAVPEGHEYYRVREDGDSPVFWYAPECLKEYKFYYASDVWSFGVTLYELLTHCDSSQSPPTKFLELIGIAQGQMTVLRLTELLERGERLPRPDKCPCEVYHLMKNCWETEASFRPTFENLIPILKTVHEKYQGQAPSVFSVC
Sequence of JAK2 (O60674 whole entry): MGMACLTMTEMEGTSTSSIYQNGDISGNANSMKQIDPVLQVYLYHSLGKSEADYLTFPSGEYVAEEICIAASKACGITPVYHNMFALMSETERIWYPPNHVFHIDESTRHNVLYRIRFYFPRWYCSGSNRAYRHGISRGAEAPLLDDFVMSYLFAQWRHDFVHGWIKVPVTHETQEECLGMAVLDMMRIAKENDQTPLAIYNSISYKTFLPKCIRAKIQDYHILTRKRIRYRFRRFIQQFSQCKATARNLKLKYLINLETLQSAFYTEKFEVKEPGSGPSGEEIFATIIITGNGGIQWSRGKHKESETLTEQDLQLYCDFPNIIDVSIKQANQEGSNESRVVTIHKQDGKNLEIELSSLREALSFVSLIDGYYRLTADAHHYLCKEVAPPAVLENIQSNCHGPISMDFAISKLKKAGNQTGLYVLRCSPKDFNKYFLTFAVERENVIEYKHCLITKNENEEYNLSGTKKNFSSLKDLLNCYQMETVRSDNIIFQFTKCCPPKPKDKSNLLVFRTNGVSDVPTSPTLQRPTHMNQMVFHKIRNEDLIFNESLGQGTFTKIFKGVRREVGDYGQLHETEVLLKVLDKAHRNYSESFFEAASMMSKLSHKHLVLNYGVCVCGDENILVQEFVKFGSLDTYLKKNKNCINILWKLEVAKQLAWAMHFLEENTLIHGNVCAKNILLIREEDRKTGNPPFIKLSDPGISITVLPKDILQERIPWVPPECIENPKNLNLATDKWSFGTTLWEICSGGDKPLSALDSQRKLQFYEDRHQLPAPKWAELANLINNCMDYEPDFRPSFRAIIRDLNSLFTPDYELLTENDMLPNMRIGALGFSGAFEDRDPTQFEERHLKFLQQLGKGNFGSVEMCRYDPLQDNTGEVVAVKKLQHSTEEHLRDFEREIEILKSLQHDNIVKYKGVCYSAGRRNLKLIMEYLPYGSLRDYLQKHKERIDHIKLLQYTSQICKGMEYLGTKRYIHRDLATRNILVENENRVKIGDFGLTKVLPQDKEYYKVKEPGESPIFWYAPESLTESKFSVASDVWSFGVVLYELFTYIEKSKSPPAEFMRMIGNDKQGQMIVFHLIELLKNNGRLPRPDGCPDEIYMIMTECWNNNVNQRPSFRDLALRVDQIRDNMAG

Structure (SMILES)	Ki [1]	Ki ([2]; read-out: JAK2 Ki)	EC50 [3, 6]	EC50 [4, 7]	EC50 ([3]; Homo sapiens, PBMC)	EC50 ([4]; Homo sapiens, PBMC)	IL-12 induced IFNγ production [5]	Ki [2]
O=C1NCc2nc(-c3c(F)cccc3F)cc(Nc3ccc(N4CCC(F)(F)CC4)cn3)c21 [Compound I-182, 2-(2,6-difluorophenyl)-4-((5-(4,4-difluoropiperidin-1-yl)pyridin-2-yl)amino)-6,7-dihydro-5H-pyrrolo[3,4-b]pyridin-5-one]	< 10 nM	10 to 100 nM	< 2000 nM	2000 to 20000 nM				
COc1ccc(Nc2nc(-c3c(F)cccc3F)nc3c2C(=O)NC3)cc1 [Compound I-110, 2-(2,6-difluorophenyl)-4-((4-methoxyphenyl)amino)-6,7-dihydro-5H-pyrrolo[3,4-d]pyrimidin-5-one]	< 10 nM	> 1000 nM			< 2000 nM	> 20000 nM		
O=C1NCc2nc(-c3c(F)cccc3F)nc(Nc3ccc(CC(=O)N4CCC[C@H]4CO)cc3)c21 [Compound I-16, (S)-2-(2,6-difluorophenyl)-4-((4-(2-(2-(hydroxyl-methyl)pyrrolidin-1-yl)-2-oxoethyl)phenyl)amino)-6,7-dihydro-5H-pyrrolo[3,4-d]pyrimidin-5]	< 10 nM	100 to 1000 nM	< 2000 nM	> 20000 nM				
CC1(O)CCN(c2ccc(Nc3cc(-c4c(F)cccc4F)nc4c3C(=O)NC4)nc2)CC1 [Compound I-137, 2-(2,6-difluorophenyl)-4-((5-(4-hydroxy-4-methylpiperidin-1-yl)pyridin-2-yl)amino)-6,7-dihydro-5H-pyrrolo[3,4-b]pyridin-5-one]	< 10 nM	10 to 100 nM	< 2000 nM	< 2000 nM				
O=C1NCc2nc(-c3c(F)cccc3F)nc(Nc3ccc([C@@H]4CCNC4=O)cc3)c21 [Compound I-87, (S)-2-(2,6-difluorophenyl)-4-((4-(2-oxopyrrolidin-3-yl)phenyl)amino)-6,7-dihydro-5H-pyrrolo[3,4-d]pyrimidin-5-]	< 10 nM	10 to 100 nM	< 2000 nM	> 20000 nM				
O=C1NCc2nc(-c3c(F)cccc3F)nc(Nc3ccc(CC(=O)N4CCOCC4)cc3)c21 [Compound I-66, 2-(2,6-difluorophenyl)-4-((4-(2-morpholino-2-oxoethyl)phenyl)amino)-6,7-dihydro-5H-pyrrolo[3,4-d]pyrimidin-5-one]	< 10 nM	100 to 1000 nM	< 2000 nM	> 20000 nM				
O=C1NCc2nc(-c3c(F)cccc3F)cc(Nc3ccc(NC4CCC4)cn3)c21 [Compound I-276, 4-((5-(cyclobutylamino)pyridin-2-yl)amino)-2-(2,6-difluoro-phenyl)-6,7-dihydro-5H-pyrrolo[3,4-b]pyridin-5-one]	< 10 nM	10 to 100 nM	< 2000 nM	< 2000 nM				
O=C1NCc2nc(-c3c(F)cccc3F)cc(Nc3ccc(N4CCOCC4)cn3)c21 [Compound I-171, 2-(2,6-difluorophenyl)-4-((5-morpholinopyridin-2-yl)amino)-6,7-dihydro-5H-pyrrolo[3,4-b]pyridin-5-one]	< 10 nM	10 to 100 nM	< 2000 nM	2000 to 20000 nM				
O=C1NCc2nc(-c3c(F)cccc3F)cc(Nc3ccc(N4CCC(N5CCOCC5)CC4)cn3)c21 [Compound I-142, 2-(2,6-difluorophenyl)-4-((5-(4-morpholinopiperidin-1-yl)pyridin-2-yl)amino)-6,7-dihydro-5H-pyrrolo[3,4-b]pyridin-5-one]	< 10 nM	10 to 100 nM	< 2000 nM	> 20000 nM				
CCNC(=O)c1ccc(Nc2cc(-c3c(F)cccc3F)nc3c2C(=O)NC3)nc1 [Compound I-136, 6-((2-(2,6-difluorophenyl)-5-oxo-6,7-dihydro-5H-pyrrolo[3,4-b]pyridin-4-yl)amino)-N-ethylnicotinamide]	< 10 nM	10 to 100 nM			< 2000 nM	< 2000 nM	significantly inhibit	
CC(C)NC(=O)c1ccc(Nc2cc(-c3c(F)cccc3F)nc3c2C(=O)NC3)nc1 [Compound I-138, 6-((2-(2,6-difluorophenyl)-5-oxo-6,7-dihydro-5H-pyrrolo[3,4-b]pyridin-4-yl)amino)-N-isopropylnicotinamide]	< 10 nM	10 to 100 nM			< 2000 nM	2000 to 20000 nM		
O=C1NCc2nc(-c3c(F)cccc3Cl)nc(Nc3ccc([C@@H]4CCNC4=O)cc3)c21 [Compound I-115, (S)-2-(2-chloro-6-fluorophenyl)-4-((4-(2-oxopyrrolidin-3-yl)phenyl)amino)-6,7-dihydro-5H-pyrrolo[3,4-d]pyrimidin-5-one]	10 to 100 nM	100 to 1000 nM	< 2000 nM	2000 to 20000 nM				
CN1CCN(C(=O)Cc2ccc(Nc3nc(-c4c(F)cccc4F)nc4c3C(=O)NC4)cc2)CC1 [Compound I-67, 2-(2,6-difluorophenyl)-4-((4-(2-(4-methylpiperazin-1-yl)-2-oxoethyl)phenyl)amino)-6,7-dihydro-5H-pyrrolo[3,4-d]pyrimidin-5-one]	< 10 nM		< 2000 nM	> 20000 nM				10 to 100 nM
CC(C)(C)N1CCN(c2ccc(Nc3cc(-c4c(F)cccc4F)nc4c3C(=O)NC4)nc2)CC1 [Compound I-227, 4-((5-(4-(tert-butyl)piperazin-1-yl)pyridin-2-yl)amino)-2-(2,6-difluorophenyl)-6,7-dihydro-5H-pyrrolo[3,4-b]pyridin-5-one]	< 10 nM	< 10 nM	< 2000 nM	< 2000 nM				
O=C1NCc2nc(-c3c(F)cccc3F)cc(Nc3ccc(C(=O)N4CCOCC4)cc3)c21 [Compound I-231, 2-(2,6-difluorophenyl)-4-((4-(morpholine-4-carbonyl)-phenyl)amino)-6,7-dihydro-5H-pyrrolo[3,4-b]pyridin-5-one]	< 10 nM	10 to 100 nM		2000 to 20000 nM	< 2000 nM			
CC(C)(C)NC(=O)c1ccc(Nc2cc(-c3c(F)cccc3F)nc3c2C(=O)NC3)nc1 [Compound I-165, N-(tert-butyl)-6-((2-(2,6-difluorophenyl)-5-oxo-6,7-dihydro-5H-pyrrolo[3,4-b]pyridin-4-yl)amino)nicotinamide]	< 10 nM	10 to 100 nM	< 2000 nM	2000 to 20000 nM			significantly inhibit	
O=C1NCc2nc(-c3c(F)cccc3F)cc(Nc3ccc(NCCN4CCC(F)(F)CC4)cn3)c21 [Compound I-135, 2-(2,6-difluorophenyl)-4-((5-((2-(4,4-difluoropiperidin-1-yl)ethyl)amino)pyridin-2-yl)amino)-6,7-dihydro-5H-pyrrolo[3,4-b]pyridin-5-one]	< 10 nM	10 to 100 nM	< 2000 nM	< 2000 nM				
C[C@H](C(=O)N1CCCCC1)c1ccc(Nc2nc(-c3c(F)cccc3F)nc3c2C(=O)NC3)cc1 [Compound I-206, (S)-2-(2,6-difluorophenyl)-4-((4-(1-oxo-1-(piperidin-1-yl)propan-2-yl)phenyl)amino)-6,7-dihydro-5H-pyrrolo[3,4-d]pyrimidin-5-one]	< 10 nM	100 to 1000 nM			< 2000 nM	> 20000 nM		
O=C1NCc2nc(-c3c(F)cccc3F)cc(Nc3ccc(OCCN4CCOCC4)cn3)c21 [Compound I-148, 2-(2,6-difluorophenyl)-4-((5-(2-morpholinoethoxy)pyridin-2-yl)amino)-6,7-dihydro-5H-pyrrolo[3,4-b]pyridin-5-one]	< 10 nM	10 to 100 nM	< 2000 nM	2000 to 20000 nM				

Reference: patent publication US10196390B2, “TYK2 inhibitors and uses thereof” (Nimbus Lakshmi, Inc., priority 2014, dated 2019)
